According to PubChem BioAssay (NCI):
Values joined by “and” are separate entries in the source; they are usually repeats but may differ in a detail not shown here. Equal entries are not always repeated.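 Step 1: Grow cells in 96-well plates. Step 2: Expose to compound for 48 hours at 5 concentrations. Step 3: Interpolate endpoints linearly; if unreached, use highest concentration. The concentration for 50% growth inhibition is given as GI50. TGI denotes the concentration required for complete inhibition of growth.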

Tests used:
Assay in all cases: NCI-60 cell line screen, 48 h
[1] = test system: ACHN renal
[2] = test system: EKVX NSCLC
[3] = test system: HCT-15 colon
[4] = test system: OVCAR-5 ovarian
[5] = test system: OVCAR-8 ovarian
[6] = test system: RXF 393 renal
[7] = test system: SN12C renal
[8] = test system: SNB-19 CNS
[9] = test system: T-47D breast
[10] = test system: NCI-H226 lung

Structure (SMILES) | GI50 [1] [µM] | TGI [1] [µM] | GI50 [2] [µM] | TGI [2] | GI50 [3] [µM] | TGI [3] | GI50 [4] [µM] | TGI [4] | GI50 [5] [µM] | TGI [5] | GI50 [6] [µM] | TGI [6] | GI50 [7] [µM] | TGI [7] | GI50 [8] [µM] | TGI [8] | GI50 [9] [µM] | TGI [9] [µM] | TGI [10] [µM] | GI50 [10] [µM]
COc1cccc(/C=C/C(=O)c2ccc(SC)cc2)c1OC | 17.2 | 33.7 | 18.8 | 35.6 µM | 10.4 | 30.3 µM | 18.7 | 34.2 µM | 12.7 | 25.6 µM | 3.9 | 11.7 µM | 14.7 | 29.2 µM | 16.2 | 32 µM | 11.6 | 35.2 | – | –
O=C1C(=O)N(c2ccc(Cl)cc2)C(=O)C(=O)C1c1nc2ccccc2o1 | – | > 100 | – | > 100 µM | – | > 100 µM | – | > 100 µM | – | > 100 µM | – | > 100 µM | – | > 100 µM | – | > 100 µM | – | – | > 100 | –
O=C(O)C[C@@H](Cl)[C@H](NC(=O)OCc1ccccc1)C(=O)O | – | > 100 | – | > 100 µM | – | > 100 µM | – | > 100 µM | – | > 100 µM | – | > 100 µM | – | > 100 µM | – | > 100 µM | – | – | > 100 | –
CC1(C)S[C@@H]2[C@H](N3C(=O)c4ccccc4C3=O)CN2[C@H]1NC(=O)N[C@@H]1N2C[C@@H](N3C(=O)c4ccccc4C3=O)[C@H]2SC1(C)C | – | > 100 | – | – | – | > 100 µM | – | > 100 µM | – | > 100 µM | – | 82.1 µM | – | > 100 µM | – | > 100 µM | – | > 100 | > 100 | –
NCCc1ccc(S(=O)(=O)F)cc1 | 45.9 | > 100 | 43.3 | > 100 µM | 64.4 | > 100 µM | 43.4 | > 100 µM | > 100 | > 100 µM | 37.8 | 98.2 µM | – | – | > 100 | > 100 µM | > 100 | > 100 | – | –
CSC(=NC#N)S/C=C/C(=O)c1ccccc1 | 28.6 | 76.9 | 86.4 | > 100 µM | 34.8 | > 100 µM | 62 | > 100 µM | 38.1 | > 100 µM | 31.1 | 79 µM | 39.4 | > 100 µM | > 100 | > 100 µM | > 100 | > 100 | – | –
CCC(=O)N1C(=O)OCC1C(C)C (stereo not given) | – | > 100 | – | > 100 µM | – | > 100 µM | – | > 100 µM | – | > 100 µM | – | > 100 µM | – | > 100 µM | – | > 100 µM | – | – | – | –
CC(C)C12Cc3c(ccc4ccccc34)OC1(C)Oc1ccc3ccccc3c1C2 (stereo not given) | – | > 100 | – | > 100 µM | – | – | – | > 100 µM | – | > 100 µM | – | > 100 µM | – | > 100 µM | – | > 100 µM | – | – | > 100 | –
N/N=C1\C(=O)N(Cc2ccccc2)C(=O)C1C(=O)NCc1ccccc1 (stereo not given) | – | > 100 | – | > 100 µM | – | > 100 µM | – | > 100 µM | – | > 100 µM | – | > 100 µM | – | > 100 µM | – | > 100 µM | – | – | – | –
Cc1c(-c2ccc(C3CCCCC3)cc2)nc2ccc(F)cc2c1C(=O)O | 0.33 | > 100 | – | – | 0.0196 | > 100 µM | > 100 | > 100 µM | 0.123 | > 100 µM | 10.7 | > 100 µM | 0.546 | > 100 µM | 0.2 | > 100 µM | 9.65 | > 100 | > 100 | 3.08
Nc1c(C(=O)Nc2ccccc2)sc2nc3c(cc12)CCCCC3 | 0.998 | > 100 | – | – | 0.421 | > 100 µM | 1.06 | > 100 µM | 1.51 | > 100 µM | 0.321 | 1.22 µM | 1.88 | > 100 µM | 0.643 | > 100 µM | 0.834 | 80.6 | 24.7 | 1.49
O=S(=O)([O-])c1ccc(N=Cc2ccccc2[O-])cc1.O=S(=O)([O-])c1ccc(N=Cc2ccccc2[O-])cc1.[Co+2] | > 100 | > 100 | 69.2 | > 100 µM | > 100 | > 100 µM | > 100 | > 100 µM | > 100 | > 100 µM | > 100 | > 100 µM | > 100 | > 100 µM | > 100 | > 100 µM | – | – | > 100 | > 100
COc1ccc2c(c1)c(-c1nc(-c3c[nH]c4ncccc34)cs1)cn2CCCN1CCCCC1 | 1.62 | 3.01 | 1.44 | 2.9 µM | 1.57 | 2.97 µM | 1.73 | 3.8 µM | 2 | 3.76 µM | 1.59 | 3.2 µM | 1.75 | 3.36 µM | – | – | – | – | – | –
CC(CC(=O)N1C(=O)C(C)(C)[C@@H](O)[C@H]1CC(C)C(Cl)(Cl)Cl)C(Cl)(Cl)Cl (stereo not given in full) | – | > 100 | – | > 100 µM | – | > 100 µM | – | – | – | > 100 µM | – | – | – | > 100 µM | – | > 100 µM | – | – | > 100 | –
COC(OC)c1cc2c(cc1C=O)OCO2 | – | > 100 | – | > 100 µM | – | – | – | > 100 µM | – | > 100 µM | – | > 100 µM | – | > 100 µM | – | > 100 µM | – | – | > 100 | –
CO[C@@H]1C=C[C@@]23c4cc5c(cc4CN(C[C@@H]2O)[C@H]3C1)OCO5 | – | > 100 | – | > 100 µM | – | > 100 µM | – | > 100 µM | – | > 100 µM | – | > 100 µM | – | 87.9 µM | – | > 100 µM | – | – | > 100 | –
CSCS(=O)C[C@H](CO)NC(=O)/C=C/c1c(C)[nH]c(=O)[nH]c1=O (stereo not given in full) | – | 6.86 | 3.3 | 12.7 µM and 4.98 µM | 2.93 | 13.6 µM and 6.92 µM | 2.7 | 9.91 µM and 7.24 µM | 1.02 | 3.96 µM and 4.35 µM | 1.28 | 3.7 µM and 2.97 µM | 1.46 | 7.79 µM and 5.49 µM | 0.605 | 8.35 µM and 5.11 µM | – | – | 3.42 | –
O=c1[nH]c2ccccc2c2nc3ccccc3n12 | – | > 100 | – | > 100 µM | – | > 100 µM | – | > 100 µM | – | > 100 µM | – | > 100 µM | – | > 100 µM | – | > 100 µM | – | > 100 | – | –
COc1ccc(/C=C2\CN(C(=O)C(Cl)Cl)C/C(=C\c3ccc(OC)cc3)C2=O)cc1 | 1.67 | 4.7 | – | – | 0.337 | 1.52 µM | – | – | 0.881 | > 100 µM | 1.11 | 2.37 µM | – | – | – | – | – | – | 7.65 | 2.47
